Source: ChEMBL document CHEMBL1143143, “The influence of esters and carboxylic acids as the N-substituent of opioids. Part 1: Benzomorphans” (Bioorg Med Chem, 2008)
The source made the active and inactive calls. No cut-off for these calls is given here.

How the values were obtained:
Mus musculus [1] = assay: Antinociceptive activity in sc dosed mouse by hot plate method; type: functional
Mus musculus [2] = assay: Antinociceptive activity in sc dosed mouse by tail flick method; type: functional
Mus musculus [3] = assay: Antinociceptive activity in sc dosed mouse by phenylquinone antiwrithing assay; type: functional
[4] = Displacement of 3.0 nM [3H]etorphine from opioid receptor in rat cerebrum
[5] = Displacement of [3H]etorphine from opioid receptor in rat cerebrum
Mus musculus [6] = assay: Antinociceptive activity in sc dosed mouse assessed as inhibition of morphin response by tail flick assay; type: functional
Mu-type opioid receptor = Mu-type opioid receptor (Mus musculus, UniProt P42866); assay: Agonist activity at mu opioid receptor in Swiss mouse vas deferens assessed as inhibition of electrically-stimulated twitch; type: functional, tissue-based
Mu-type opioid receptor, sequence (P42866 whole entry): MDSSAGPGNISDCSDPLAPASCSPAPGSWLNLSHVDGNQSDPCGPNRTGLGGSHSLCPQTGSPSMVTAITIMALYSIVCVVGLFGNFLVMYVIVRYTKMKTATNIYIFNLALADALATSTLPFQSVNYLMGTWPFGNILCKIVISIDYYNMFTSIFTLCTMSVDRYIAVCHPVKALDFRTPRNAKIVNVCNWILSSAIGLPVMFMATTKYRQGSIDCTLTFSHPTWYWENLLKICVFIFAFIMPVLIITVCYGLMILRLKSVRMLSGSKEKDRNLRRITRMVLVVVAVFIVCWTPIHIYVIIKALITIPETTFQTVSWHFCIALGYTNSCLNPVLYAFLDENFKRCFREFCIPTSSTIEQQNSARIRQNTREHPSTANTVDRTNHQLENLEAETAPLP

Compound | Activity (Mus musculus [1]) | Activity (Mus musculus [2]) | Activity (Mus musculus [3]) | EC50 [4] [µM] | EC50 [5] [µM] | ED50 (Mus musculus [6]) [mg/kg] | Activity (Mus musculus [6]) | ED50 (Mus musculus [3]) [mg/kg] | EC50 (Mu-type opioid receptor) [µM] | ED50 (Mus musculus [1]) [mg/kg] | ED50 (Mus musculus [2]) [mg/kg]
O=C1CC[C@@]2(O)[C@H]3Cc4ccc(O)c5c4[C@@]2(CCN3CC2CC2)[C@H]1O5 [NALTREXONE] | inactive | inactive | inactive | 0.002 | 0.00063 | 0.007 |  |  |  |  | 
CCOC(=O)CN1CC[C@]2(C)c3cc(O)ccc3CC1[C@@H]2C | inactive | inactive | inactive |  | 2.08 |  | inactive |  |  |  | 
C=CCN1CC[C@]23c4c5ccc(O)c4O[C@H]2C(=O)CC[C@@]3(O)[C@H]1C5 [NALOXONE] | inactive | inactive | inactive | 0.0091 | 0.00626 | 0.03 |  |  |  |  | 
C[C@H]1C2Cc3ccc(O)cc3[C@@]1(C)CCN2CCC(=O)O | inactive | inactive |  |  | > 6 |  | inactive | 11.4 |  |  | 
C=CCN1CC[C@]23c4c5ccc(O)c4O[C@H]2[C@@H](O)C=C[C@H]3[C@H]1C5 [NALORPHINE] |  | inactive |  |  | 0.02 | 2.6 |  | 0.6 |  |  | 
C[C@H]1C2Cc3ccc(O)cc3[C@@]1(C)CCN2CC(=O)O | inactive | inactive | inactive |  | > 6 |  | inactive |  | 9.79 |  | 
C[C@H]1C2Cc3ccc(O)cc3[C@@]1(C)CCN2CCCC(=O)O | inactive | inactive |  |  | > 6 |  | inactive | 1.4 |  |  | 
CCOC(=O)CCN1CC[C@]2(C)c3cc(O)ccc3CC1[C@@H]2C | inactive | inactive | inactive |  |  |  | inactive |  |  |  | 
CN1CC[C@]23c4c5ccc(O)c4O[C@H]2[C@@H](O)C=C[C@H]3[C@H]1C5 [MORPHINE] |  |  |  |  |  | 2.6 |  |  |  |  | 
C[C@H]1[C@@H]2Cc3ccc(O)cc3[C@]1(C)CCN2C [METAZOCINE] |  |  |  |  |  |  | inactive | 0.3 |  | 0.62 | 0.81
COc1ccc2c3c1O[C@H]1[C@@H](O)C=C[C@H]4[C@@H](C2)N(C)CC[C@@]341 [CODEINE] |  |  |  | 34.7 |  |  |  |  |  |  | 
CCOC(=O)CCCN1CC[C@]2(C)c3cc(O)ccc3CC1[C@@H]2C | inactive | inactive |  |  | 1.02 |  | inactive | 7.1 | 17.9 |  | 
